Consider six molecules from patent US20220095615A1, “NEMATODE DETERRENT COMPOSITIONS” (SALK INSTITUTE FOR BIOLOGICAL STUDIES, priority 2018, published 2022).

Molecules are shown by their SMILES. Structures can show the parent of a compound that is named as a salt.

In experiment [1] the test system is C. elegans. Put plainly: Chemotaxis assay for volatile components. The following applies: Benzaldehyde 1:200, 2-nonanone undiluted, 60 min, FIG. 8D. The class given is in vivo, Caenorhabditis elegans. On the procedure:
Chemotaxis assays were performed on 2% agar square (10 cm) plates containing 5 mM potassium phosphate (pH 6), 1 mM CaCl2, and 1 mM MgSO4. Animals were washed three times in M9 and once in chemotaxis buffer (5 mM potassium phosphate (pH 6), 1 mM CaCl2, and 1 mM MgSO4) and then placed in the middle of the plate (FIG. 8c). Two spots of the collected nematode secretions and two control M9 spots (all 1 μl) were added to opposite sides of the plate, generating gradients of any volatile components in the nematode secretions. Animals were allowed to explore these gradients for 1 h, after which they were counted and the chemotaxis index calculated (FIG. 8d). Benzaldehyde (1:200) and 2-nonanone (undiluted) were used as control attractants and repellents, respectively^25. Nine or more assays were performed on at least three different days. Two-tailed unpaired t-tests were used to compare C. elegans responses to different secretions, and the Bonferroni correction was used to adjust for multiple comparisons.

For experiment [2], the system named is C. elegans. The following applies: literature reference; cited from earlier work.
Experiment [3] deals with C. elegans. Put plainly: Egg-laying assay. The format is in vivo, Caenorhabditis elegans. The following applies: predator cue with sertraline (1 mM) for 30 min, egg-laying monitored 60 min after removal, FIG. 4f. On the procedure:
Synchronized Day 1 adults were treated with M9 control buffer or concentrated predator cue for 30 min. These animals were transferred to a 2-day lawn of 100 μl OP50 bacteria (OD600=0.5) and allowed to lay eggs. Eggs were counted at the time intervals shown. In each condition and genotype, at least 35 animals were analyzed. Average number of eggs and s.e.m. are presented with two-tailed unpaired t-tests with Bonferroni correction for statistical analysis. To test the effect of sulfolipids on egg-laying behavior, these compounds were dissolved in DMSO and further diluted in M9 to obtain the concentrations indicated. Sertraline effects were analyzed by exposing animals to predator cue with or without sertraline (1 mM) for 30 min.

The test system of experiment [4] is C. elegans. In words: Single animal avoidance assay (avoidance index). The following applies: for activity of synthetic sulfolipids in the avoidance assay: synthetic compounds, FIG. 10a. The format is in vivo, Caenorhabditis elegans. The procedure: Adult C. elegans were exposed to a small volume of a test compound (0.05 μl) near the head of the animal. Upon sensing a repellent, animals initiate a reversal followed by an omega bend. Positive responses to a test compound were scored only if they occurred within 4 s. Results are shown as the avoidance index, which is the ratio of number of positive responses to the total number of trials. Each animal is tested thrice and data is presented as average of the animals tested on at least 3 days (FIGS. 1-4 and FIGS. 8-13). For Data in FIG. 18b, animals were pre-treated with various drugs at 100 μM for 30 min and then their responses to predator cue were analyzed. Each assay was performed in triplicate (5 animals per condition) and on at least 3 different days […]. For Data shown in FIG. 4, animals were pre-treated with 1 mM Sertraline (Sigma) or M9 control for 3 min before being tested for their responses in the avoidance assay. We also performed additional controls to test whether an animal's response to the three repellent trials were independent.
Two-tailed unpaired t-tests were used to compare different strains, genotypes, and conditions, and the Bonferroni correction was used to adjust for multiple comparisons. Avoidance indices of all strains tested and controls are shown in Supplementary Table S7 of Liu et al., Nature Communications 9: 1128 (2018)).
Adult nematodes were exposed to a small volume of a test compound (0.05 μl) near the head of the animal. Upon sensing a repellent, animals initiate a reversal followed by an omega bend. Positive responses to a test compound were scored only if they occurred within 4 s. Results are shown as the avoidance index, which is the ratio of number of positive responses to the total number of trials. Each animal is tested thrice and data is presented as average of the animals tested on at least 3 days.

For the molecule `O=Cc1ccccc1` [Benzaldehyde], the “chemotaxis response to control attractant and repellent” value in experiment [1] is given as “strong responses”.
As for `CCCCCCCCCCCCOS(=O)(=O)[O-].[Na+]` [SDS, sodium dodecyl sulfate], the “C. elegans avoidance cue potency” value in experiment [2] was “potent”.
`CCCCCCCC(C)=O` [Sulfolipid 2-nonanone, 2-nonanone]: the “chemotaxis response to control attractant and repellent” value in experiment [1] is “strong responses”.
`CN[C@H]1CC[C@@H](c2ccc(Cl)c(Cl)c2)c2ccccc21` [sertraline]: the “sertraline effect on predator cue-induced egg-laying response” value in experiment [3] is reported as “reduced the longer-lasting egg-laying response”. Moreover, the “duration of the drug effects (decay of the sertraline effect)” value in experiment [4] (predator cue, FIG. 13C legend) is on record as “about 30 minutes”. The “concentration dependence of suppression of avoidance behavior” value in experiment [4] (predator cue, FIG. 13b) was “dependent on drug concentration”. In addition, the “duration of suppression of avoidance after the drug was removed” value in experiment [4] (predator cue, FIG. 13c) was “at least 30 min”. Also, the “sertraline modulation of avoidance in eat-4 mutants” value in experiment [4] (predator cue, eat-4 (vesicular glutamate transporter) mutants, FIG. 4c) is listed as “significant sertraline-induced modulation of avoidance behavior”. Moreover, the “sertraline effect on behavior of tax-4 or ocr-2 mutants” value in experiment [4] (predator cue, tax-4 or ocr-2 mutants, FIG. 4b) was “no detectable effect”. Moreover, the “sertraline attenuation in unc-25 mutants” value in experiment [4] (predator cue, unc-25 (glutamic acid decarboxylase) mutants, FIG. 4c) was “defective in sertraline attenuation”. Also, in experiment [4] (wild-type, pre-treated with sertraline (1 mM), FIG. 4a), the “sertraline effect on avoidance to predator cue” value was “attenuated avoidance”. In experiment [4] (wild-type, pre-treated with sertraline, FIG. 4a), the “sertraline effect on avoidance responses to fructose” value was “attenuated avoidance responses”. Moreover, in experiment [4] (wild-type, pre-treated with sertraline, FIG. 13a), the “sertraline effect on avoidance to purified sulfolipids” value was “attenuated avoidance”.
As to `CC(C)CCC(CCCCCCCCCO)OS(=O)(=O)O` (stereo not drawn) [sufal #1, 14-hydroxy-2-methyltetradecan-5-yl Hydrogen Sulfate], the “activity of synthetic sulfolipids in the avoidance assay” value in experiment [4] is listed as “accounted for most of the isolated activity”.
The same measure, in the same setting: with `CC(C)CCCC(CCCCCCCCO)OS(=O)(=O)O` (stereo not drawn) [sufal #2, 14-hydroxy-2-methyltetradecan-6-yl Hydrogen Sulfate] the entry was “accounted for most of the isolated activity”.
